Laboratory results from patent US12102685B2, “Immodulator peptides covalently modified with small molecules” (priority 2020, dated 2024).
Marks after values point to notes of the source that are not given here. Peptide text beside a SMILES is read from it.

What was measured:
[1] = tested on: genes associated with oxidative stress in dorsal root ganglia; assay: qRT-PCR of dorsal root ganglia 14 days after burn; format: in vivo, Sprague Dawley rats; conditions: DRG 14 days after burn, sham = 1
Description: Survivors of severe burns suffer lifetime neuroinflammatory consequences manifested by higher incidence of major depression and neurodegenerative disease. […] Nephrilin's mechanism of action appears to involve protection from excessive oxidative stress. Using quantitative reverse transcriptase polymerase chain reaction (qRT-PCR) amplification of transcripts in total RNA extracted from dorsal root ganglia (DRG) of male rats 14 days after exposure to thermal insult, we query the relative levels of expression of 34 genes believed to be associated with oxidative stress biology in the CNS. […] This subset analysis of DRG from a previously published study (n=3 per group) is associated with the following effects in the study (Table x7A):
In this study, using quantitative reverse transcriptase polymerase chain reaction (qRT-PCR) amplification of transcripts in total RNA extracted from dorsal root ganglia of male rats 14 days after exposure to thermal insult, the relative levels of expression of 34 genes believed to be associated with oxidative stress biology in the CNS were queried, with an emphasis on astrogliosis, immunosuppression and mitochondrial homeostasis. The 34 genes studied were selected based on their known implication in the above processes, as described in the scientific literature. Dorsal root ganglia (DRG) were dissected from male adult Sprague Dawley rats (300 gm, Charles River Laboratories, Wilmington, MA, USA), three randomly selected animals in each treatment group were used (Group 1:sham; Group 2: burn+vehicle; Group 3: burn+IM3N1) and total RNA was extracted from each pool using the Rneasy Midi Kit (Qiagen, Germantown, MD). Yield was ˜30 ug RNA per pool and A260/A280 ratios were between 1.87-2.04 in all cases. The high quality of each RNA prep was further confirmed by electrophoresis (using Eukaryote Total RNA Nano). For quantitative reverse transcriptase polymerase chain reaction (qRT-PCR) RNAs were diluted in RNase/DNase free water and aliquoted into wells in triplicate. Approximately 100 ng of RNA was used per well. A one step qPCR method was performed using Luna Universal One-Step RT-qPCR kit (New England Biolabs, Ipswich, MA) containing reverse transcriptase enzyme mix. Primer pairs for each gene were synthesized for the SYBR assay. The following standard qPCR cycling conditions were used: 55C for 10′ (for RT), 95C for 1′ followed by 40 cycles at 95C for 10 s. 58C for 30 s. Background was set at 3-10 cycles and the threshold was set at 0.02 for all runs. Ct values were collected and analyzed using the “delta-delta Ct” method. Transcript data for each gene are shown relative to GAPDH, a house-keeping gene. Sham group value was set to 1. Gene groups: [A] astrocyte activation; [B] MDSC-mediated immunosuppression; [C] Mitochondrial homeostasis; [D] Downstream effects of oxidative stress;

NF-kappa-B (NFkB) = assay: THP1-Dual monocyte reporter, NF-kappa-B readout (x4A); format: cell-based
Experimental: Immune modulation functions of immodulator peptides were measured using the monocyte reporter cell line THP1-Dual (Invivogen, San Diego, CA), which provides convenient readouts for STING and NF-kappa-B pathways. Optionally, succinic acid, cytokine and chemokine production were also measured. THP1-Dual cell line was obtained from Invivogen. Cells were grown in a T-75 flask in RPMI Medium containing 20% fetal bovine serum, blasticidin ([…]), zeocin ([…]) and penicillin-streptomycin at 37° C. in a humidified, 5% CO2 incubator. Cells ([…], 8,000 cells/well) were plated in a 96-well plate and incubated overnight at 37 °C in a humidified, 5% CO2 incubator. Next day, […] of compounds were added (quadruplicate wells). After 24 hour incubation with the compound, supernatants were harvested and stored at 4° C. prior to assay.
Each cell supernatant was assayed in quadruplicate. 20 uL of supernatant was used to measure NF-kappa-B (NFkB) and
STING activity using reagents QuantiBlu and QuantiLuc respectively, according to the manufacturer's recommendations (Invivogen, San Diego, CA). Succinic acid was measured by using a kit from Megazyme Inc (Cambridge, MA). Control value of activity was set to 100 in each assay. […] PAM3C=25 ng/ml PAM3CSK4 (TLR1/2 inducer); Poly(I:C)=10 ug/ml (TLR3 inducer); PAM2C=25 ng/ml PAM2CSK4 (TLR2/6 inducer); KIN14=4 uM KIN-1400 (RIG-I inducer); cytB=1 uM cytosporone B (Nur77 inducer); C-178=1 uM STING inhibitor; NFkBi=50 ug/ml NFkB inhibitor peptide; SB2021=10 uM p38MAPK inhibitor; *p<0.05, **p<0.01 vs IM3 control; #p<0.01 vs “no inducer” control; SUCC=succinic acid; nd=not done; Peptide was added to cells at 400 nM.
Peptides were added to cells at 400 nM. […]

“RGVTEDYLRLETLVQKVVSKGFYKKKQCRPSKGRKRGFCW [IM3N1]” was tested, and the “GFAP transcript relative to GAPDH” value ([1]; [A] astrocyte activation, IM3N1 4 mg/kg sc 7 days) was 2.40, the “AQP4 transcript relative to GAPDH” value ([1]; [A]) was 0.59 and the “CTGF transcript relative to GAPDH” value ([1]; [A]) was 1.61. The “GALANIN transcript relative to GAPDH” value ([1]; [A]) was 18.50, the “NPY transcript relative to GAPDH” value ([1]; [A]) was 29.50 and the “Pi16 transcript relative to GAPDH” value ([1]; [A]) was 2.40. The “S100A9 transcript relative to GAPDH” value ([1]; [A]) was 5.01, the “SLC7A11 transcript relative to GAPDH” value ([1]; [B] MDSC-mediated immunosuppression) was 4.78 and the “ARG1 transcript relative to GAPDH” value ([1]; [B]) was 3.09. The “CCL2 transcript relative to GAPDH” value ([1]; [B]) was 3.17, the “CD63 transcript relative to GAPDH” value ([1]; [B]) was 1.88 and the “NRF2 transcript relative to GAPDH” value ([1]; [B]) was 1.29. For the same compound, the “TFAM transcript relative to GAPDH” value ([1]; [C] Mitochondrial homeostasis) was 1.14, the “ACMSD transcript relative to GAPDH” value ([1]; [C]) was 0.97 and the “BOK transcript relative to GAPDH” value ([1]; [C]) was 1.10. For the same compound, the “FIS1 transcript relative to GAPDH” value ([1]; [C]) was 0.90, the “GLUL transcript relative to GAPDH” value ([1]; [C]) was 1.53 and the “HCRTR1 transcript relative to GAPDH” value ([1]; [C]) was 1.42. The “MFN2 transcript relative to GAPDH” value ([1]; [C]) was 1.48, the “NOX2 transcript relative to GAPDH” value ([1]; [C]) was 2.07 and the “NOX4 transcript relative to GAPDH” value ([1]; [C]) was 6.57. The “OXR1 transcript relative to GAPDH” value ([1]; [C]) was 1.04, the “PINK1 transcript relative to GAPDH” value ([1]; [C]) was 1.35 and the “PPARGC1A transcript relative to GAPDH” value ([1]; [C]) was 1.00. For the same compound, the “RAC1 transcript relative to GAPDH” value ([1]; [C]) was 1.00, the “SHC1 transcript relative to GAPDH” value ([1]; [C]) was 2.34 and the “SLC23A2 transcript relative to GAPDH” value ([1]; [C]) was 1.47. The “STEAP4 transcript relative to GAPDH” value ([1]; [C]) was 1.77, the “UCP2 transcript relative to GAPDH” value ([1]; [C]) was 1.22 and the “PLSCR1 transcript relative to GAPDH” value ([1]; [D] Downstream effects of oxidative stress) was 2.30. For the same compound, the “BACE1 transcript relative to GAPDH” value ([1]; [D]) was 1.42, the “SLC12A2 transcript relative to GAPDH” value ([1]; [D]) was 1.59 and the “SLC12A5 transcript relative to GAPDH” value ([1]; [D]) was 1.38.

For `N=C(N)NCCC[C@H](NC(=O)CNC(=O)[C@H](CCCCN)NC(=O)[C@H](CO)NC(=O)[C@@H]1CCCN1C(=O)[C@H](CCCNC(=N)N)NC(=O)[C@H](CS)NC(=O)[C@H](CCC(N)=O)NC(=O)[C@H](CCCCN)NC(=O)[C@H](CCCCN)NC(=O)[C@H](CCCCN)NC(=O)[C@H](Cc1ccc(O)cc1)NC(=O)[C@H](Cc1ccccc1)NC(=O)CNC(=O)[C@H](CCCCN)NC(=O)[C@@H](N)CCCCN)C(=O)N[C@@H](CCCCN)C(=O)N[C@@H](CCCNC(=N)N)C(=O)NCC(=O)N[C@@H](Cc1ccccc1)C(=O)N[C@@H](CS)C(=O)N[C@@H](Cc1c[nH]c2ccccc12)C(=O)O` [IM3] (H-KKGFYKKKQCRPSKGRKRGFCW-OH; N-terminus and C-terminus assumed), the NFkB (NF-kappa-B (NFkB); peptide 400 nM + KIN1400 (= 100)) was 100, the NFkB (NF-kappa-B (NFkB); peptide 400 nM + KIN1400 + C-178 1 uM) was 98.1 and the NFkB (NF-kappa-B (NFkB); peptide 400 nM + KIN1400 + NFkBi 50 ug/ml) was 104.4. The NFkB (NF-kappa-B (NFkB); peptide 400 nM + KIN1400 + SB2021 10 uM) was 131.3**, the NFkB (NF-kappa-B (NFkB); peptide 400 nM + KIN1400 + cytB 1 uM) was 103.5 and the NFkB (NF-kappa-B (NFkB); peptide 400 nM + PAM2C (= 100)) was 100. For the same compound, the NFkB (NF-kappa-B (NFkB); peptide 400 nM + PAM2C + C-178 1 uM) was 108.0**, the NFkB (NF-kappa-B (NFkB); peptide 400 nM + PAM2C + NFkBi 50 ug/ml) was 118.7* and the NFkB (NF-kappa-B (NFkB); peptide 400 nM + PAM2C + SB2021 10 uM) was 65.4**. For the same compound, the NFkB (NF-kappa-B (NFkB); peptide 400 nM + PAM2C + cytB 1 uM) was 99.8, the NFkB (NF-kappa-B (NFkB); peptide 400 nM + PAM3C + C-178 1 uM) was 561 and the NFkB (NF-kappa-B (NFkB); peptide 400 nM + PAM3C + NFkBi 50 ug/ml) was 458**. The NFkB (NF-kappa-B (NFkB); peptide 400 nM + PAM3C + SB2021 10 uM) was 296**, the NFkB (NF-kappa-B (NFkB); peptide 400 nM + PAM3C + cytB 1 uM) was 576 and the NFkB (NF-kappa-B (NFkB); peptide 400 nM + PAM3C, control = 100) was 575. The NFkB (NF-kappa-B (NFkB); peptide 400 nM, no inducer, control = 100) was 94**.
